The target in one test is T1, GST-ALK5 (Homo sapiens, UniProt P36897).
T1 sequence (P36897 34-503): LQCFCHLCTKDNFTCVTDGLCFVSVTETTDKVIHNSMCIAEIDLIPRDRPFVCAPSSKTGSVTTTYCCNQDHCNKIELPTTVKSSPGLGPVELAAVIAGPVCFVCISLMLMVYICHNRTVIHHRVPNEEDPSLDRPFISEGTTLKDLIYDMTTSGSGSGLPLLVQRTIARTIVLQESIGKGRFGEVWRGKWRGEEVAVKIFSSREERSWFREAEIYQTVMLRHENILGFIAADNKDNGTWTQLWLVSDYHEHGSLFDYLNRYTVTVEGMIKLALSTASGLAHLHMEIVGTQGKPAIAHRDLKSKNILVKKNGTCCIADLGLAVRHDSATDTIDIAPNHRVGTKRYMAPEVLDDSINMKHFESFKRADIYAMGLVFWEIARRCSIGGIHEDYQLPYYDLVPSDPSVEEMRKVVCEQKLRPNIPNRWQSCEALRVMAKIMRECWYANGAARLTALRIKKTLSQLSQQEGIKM
The test can be described thus: In-vitro (enzyme) kinase assay, 384-well flashplate (example 14). Type of test: biochemical. Conditions: GST-ALK5, GST-SMAD2 substrate, 33P-ATP flashplate, 30° C. 45 min; IC50 classes; read-out: TβR activity (example 14). On the procedure: In-Vitro (Enzyme) Assay for Determination of the Efficacy of Inhibitors of the Inhibition of TGF-Beta-Mediated Effects
The kinase assay was carried out as 384-well flashplate assay. 31.2 nM of GST-ALK5, 439 nM of GST-SMAD2 and 3 mM of ATP (with 0.3 μCi of ^33P-ATP/well) were incubated in a total volume of 35 μl (20 mM of HEPES, 10 mM of MgCl2, 5 mM of MnCl2, 1 mM of DTT, 0.1% of BSA, pH 7.4) without or with test substance (5-10 concentrations) at 30° C. for 45 min. The reaction was stopped using 25 μl of 200 mM EDTA solution, filtered with suction at room temperature after 30 min, and the wells were washed with 3 times 100 μl of 0.9% NaCl solution. Radioactivity was measured in the TopCount. The IC50 values were calculated using RS1. Above and below, all temperatures were indicated in ° C.
Regarding `OCc1cnccc1Nc1cc(-c2cc(F)ccc2F)nc2ncccc12` [compound 78], the IC50 is less than 100 nM.

As for `CN1CCC(C(=O)Nc2cc(Nc3cc(-c4ccccc4F)nc4ncccc34)ncn2)CC1` [compound 115], the IC50 is less than 100 nM.

As for `CS(=O)(=O)Nc1cc(Nc2cc(-c3cc(Cl)ccc3F)nc3ncccc23)ccn1` [compound 74], the IC50 is 100 to 1000 nM.

Turning to `CCN1CCN(C(=O)c2cnccc2Nc2cc(-c3cc(Cl)ccc3F)nc3ncccc23)CC1` [compound 132], the IC50 fell in the range of 1000 to 10000 nM.

For the compound `CC(C)(C)CC(=O)Nc1cc(Nc2cc(-c3ccccc3F)nc3ncccc23)ncn1` [compound 114], the IC50 is less than 100 nM.

Regarding `Fc1ccc(F)c(-c2cc(Nc3cc(Cl)ncn3)c3cccnc3n2)c1` [compound 103], the IC50 fell in the range of 100 to 1000 nM.

Consider `CCCC(=O)Nc1cc(Nc2cc(-c3cc(Cl)ccc3F)nc3ncccc23)ccn1` [compound 91], for which the IC50 was less than 100 nM.

On to `CN(C)c1cc(Nc2cc(-c3cc(Cl)ccc3F)nc3ncccc23)ncn1` [compound 121], for which the IC50 was less than 100 nM.

On to `Fc1ccc(F)c(-c2cc(Nc3ccnc(Cl)c3)c3cccnc3n2)c1` [compound 125], for which the IC50 is less than 100 nM.

Turning to `O=c1c2cnccc2c(-c2cc(-c3cc(Cl)ccc3F)nc3ncccc23)cn1CCN1CCCC1` [compound 146], the IC50 lay in the range of 100 to 1000 nM.

For `Cc1cccc(-c2cc(Nc3ccnc(Cl)c3)c3cccnc3n2)n1` [compound 83], the IC50 was 100 to 1000 nM.

With `Cc1cc(-c2cc(Nc3cc(NCCN4CCCC4)ncn3)c3cccnc3n2)c(C)o1` [compound 147], the IC50 is 1000 to 10000 nM.

For the compound `CN1CCC(NC(=O)c2cnccc2Nc2cc(-c3cc(Cl)ccc3F)nc3ncccc23)CC1` [compound 95], the IC50 is less than 100 nM.

`Cc1cccc(-c2cc(Nc3ccncc3Cl)c3cccnc3n2)n1` [compound 80]: the IC50 is less than 100 nM.

For the compound `CCOC(=O)NCC(=O)Nc1cc(Nc2cc(-c3cc(Cl)ccc3F)nc3ncccc23)ncn1` [compound 130], the IC50 was less than 100 nM.

Consider `COC(=O)c1cc(Nc2cc(-c3cc(F)ccc3F)nc3ncccc23)ccn1` [compound 116], for which the IC50 is 1000 to 10000 nM.

Turning to `O=c1[nH]cc(-c2cc(-c3cc(Cl)ccc3F)nc3ncccc23)c2ccncc12` [compound 140], the IC50 is less than 100 nM.

As to `CN1CCC(C(=O)Nc2cc(Nc3cc(-c4cc(F)ccc4F)nc4ncccc34)ncn2)CC1` [compound 117], the IC50 was less than 100 nM.

As for `CN1CCC(C(=O)Nc2cc(Nc3cc(-c4cc(Cl)ccc4F)nc4ncccc34)ncn2)CC1` [compound 111], the IC50 was less than 100 nM.

On to `CC(C)NC(=O)c1cnccc1Nc1cc(-c2cc(Cl)ccc2F)nc2ncccc12` [compound 99], for which the IC50 is less than 100 nM.

Take `CN(C)CC(=O)Nc1cc(Nc2cc(-c3cc(Cl)ccc3F)nc3ncccc23)ncn1` [compound 112]: the IC50 was less than 100 nM.

Take `CC(C)(C)OC(=O)NCC(=O)Nc1cc(Nc2cc(-c3cc(Cl)ccc3F)nc3ncccc23)ncn1` [compound 109]: the IC50 was less than 100 nM.

Regarding `COCCNc1cc(Nc2cc(-c3cc(F)ccc3F)nc3ncccc23)ncn1` [compound 138], the IC50 was in the range of 100 to 1000 nM.

For the next test, the system named is lung epithelial cell line Mv1Lu. The test can be described thus: Cellular assay for TGF-beta receptor I kinase inhibitors: elimination of TGF-beta-mediated growth inhibition (example 13). The format is cell-based. The following applies: 48 h; Mv1Lu cells, 1 ng/ml TGF-beta, 0.5% FCS, two days, Crystal Violet staining; read-out: TβR activity (example 13). On the procedure: Cellular Assay for Testing TGF-Beta Receptor I Kinase Inhibitors
As an example, the ability of the inhibitors to eliminate TGF-beta-mediated growth inhibition was tested. Cells of the lung epithelial cell line Mv1Lu were sown in a defined cell density in a 96-well microtiter plate and cultivated overnight under standard conditions. Next day, the medium was replaced by medium which comprises 0.5% of FCS and 1 ng/ml of TGF-beta, and the test substances were added in defined concentrations, generally in the form of dilution series with 5 fold steps. The concentration of the solvent DMSO was constant at 0.5%. After a further two days, Crystal Violet staining of the cells was carried out. After extraction of the Crystal Violet from the fixed cells, the absorption was measured spectrophotometrically at 550 nm. It could be used as a quantitative measure of the adherent cells present and thus of the cell proliferation during the culture.
For `OCc1cnccc1Nc1cc(-c2cc(F)ccc2F)nc2ncccc12` [compound 78], the IC50 is less than 100 nM.

As to `CN1CCC(C(=O)Nc2cc(Nc3cc(-c4ccccc4F)nc4ncccc34)ncn2)CC1` [compound 115], the IC50 lay within 100 to 1000 nM.

As to `CS(=O)(=O)Nc1cc(Nc2cc(-c3cc(Cl)ccc3F)nc3ncccc23)ccn1` [compound 74], the IC50 fell in the range of 1000 to 10000 nM.

In the case of `CCN1CCN(C(=O)c2cnccc2Nc2cc(-c3cc(Cl)ccc3F)nc3ncccc23)CC1` [compound 132], the IC50 lay within 1000 to 10000 nM.

Take `CC(C)(C)CC(=O)Nc1cc(Nc2cc(-c3ccccc3F)nc3ncccc23)ncn1` [compound 114]: the IC50 lay within 100 to 1000 nM.

On to `Fc1ccc(F)c(-c2cc(Nc3cc(Cl)ncn3)c3cccnc3n2)c1` [compound 103], for which the IC50 is more than 10000 nM.

`CCCC(=O)Nc1cc(Nc2cc(-c3cc(Cl)ccc3F)nc3ncccc23)ccn1` [compound 91]: the IC50 was less than 100 nM.

For the compound `CN(C)c1cc(Nc2cc(-c3cc(Cl)ccc3F)nc3ncccc23)ncn1` [compound 121], the IC50 was less than 100 nM.

As for `Fc1ccc(F)c(-c2cc(Nc3ccnc(Cl)c3)c3cccnc3n2)c1` [compound 125], the IC50 was in the range of 1000 to 10000 nM.

Consider `O=c1c2cnccc2c(-c2cc(-c3cc(Cl)ccc3F)nc3ncccc23)cn1CCN1CCCC1` [compound 146], for which the IC50 lay in the range of 100 to 1000 nM.

As for `Cc1cccc(-c2cc(Nc3ccnc(Cl)c3)c3cccnc3n2)n1` [compound 83], the IC50 was 1000 to 10000 nM.

Take `Cc1cc(-c2cc(Nc3cc(NCCN4CCCC4)ncn3)c3cccnc3n2)c(C)o1` [compound 147]: the IC50 is more than 10000 nM.

Consider `CN1CCC(NC(=O)c2cnccc2Nc2cc(-c3cc(Cl)ccc3F)nc3ncccc23)CC1` [compound 95], for which the IC50 was less than 100 nM.

For the compound `Cc1cccc(-c2cc(Nc3ccncc3Cl)c3cccnc3n2)n1` [compound 80], the IC50 is less than 100 nM.

On to `CCOC(=O)NCC(=O)Nc1cc(Nc2cc(-c3cc(Cl)ccc3F)nc3ncccc23)ncn1` [compound 130], for which the IC50 is less than 100 nM.

As for `COC(=O)c1cc(Nc2cc(-c3cc(F)ccc3F)nc3ncccc23)ccn1` [compound 116], the IC50 was more than 10000 nM.

`O=c1[nH]cc(-c2cc(-c3cc(Cl)ccc3F)nc3ncccc23)c2ccncc12` [compound 140]: the IC50 was less than 100 nM.

As for `CN1CCC(C(=O)Nc2cc(Nc3cc(-c4cc(F)ccc4F)nc4ncccc34)ncn2)CC1` [compound 117], the IC50 is less than 100 nM.

Consider `CN1CCC(C(=O)Nc2cc(Nc3cc(-c4cc(Cl)ccc4F)nc4ncccc34)ncn2)CC1` [compound 111], for which the IC50 was less than 100 nM.

As for `CC(C)NC(=O)c1cnccc1Nc1cc(-c2cc(Cl)ccc2F)nc2ncccc12` [compound 99], the IC50 was less than 100 nM.

`CN(C)CC(=O)Nc1cc(Nc2cc(-c3cc(Cl)ccc3F)nc3ncccc23)ncn1` [compound 112]: the IC50 was less than 100 nM.

Regarding `CC(C)(C)OC(=O)NCC(=O)Nc1cc(Nc2cc(-c3cc(Cl)ccc3F)nc3ncccc23)ncn1` [compound 109], the IC50 was less than 100 nM.

In the case of `COCCNc1cc(Nc2cc(-c3cc(F)ccc3F)nc3ncccc23)ncn1` [compound 138], the IC50 lay in the range of 100 to 1000 nM.

Values taken from patent publication US8815893B2, “Hetarylaminonaphthyridines” (Merck Patent GmbH, priority 2010, dated 2014).
